Experimental data published in patent JP2016013988A, “エステル化合物” (Mitsubishi Gas Chemical Co Inc, priority 2014, dated 2016).

Test: APHA (colour number) of the purified diester
Type: physicochemical
Details: after KOH/water washing, removal of acid under reduced pressure and activated carbon treatment

| SMILES | APHA |
| --- | --- |
| CCCCC(CC)(COCC(C)(C)COC(=O)C(C)(C)C)COC(=O)C(C)(C)C (stereo not drawn) [実施例1, ジピバリン酸 4−オキサ−2−ブチル−2−エチル−6,6−ジメチルヘプタン−1,7−ジイル] | 28 |
| CCCCC(CC)C(=O)OCC(C)(C)COCC(C)(CCC)COC(=O)C(CC)CCCC (stereo not drawn) [実施例4, ビス(2−エチルへキサン酸) 4−オキサ−2−プロピル−2,6,6−トリメチルヘプタン−1,7−ジイル] | 22 |
| CCCC(C)(COCC(C)(C)COC(=O)C(C)(C)C)COC(=O)C(C)(C)C (stereo not drawn) [実施例2, ジピバリン酸 4−オキサ−2−プロピル−2,6,6−トリメチルヘプタン−1,7−ジイル] | 27 |
